Results from US12054488B2, “Pyrazolopyrimidine compound and preparation method therefor and use thereof in preparation of anti-cancer drug” (SUZHOU RAYMON PHARMACEUTICALS COMPANY, LTD., priority 2018, dated 2024).

Biological target: PI3K-alpha enzyme (Homo sapiens (Human), UniProt P42336)
Assay: PI3-Kinase (human) HTRF Assay kit, PI3K alpha enzyme IC50 determination
Type: biochemical
Details: ATP 10 μM, PIP2 10 μM, 1% DMSO, 30 min at room temperature, double holes per concentration, read-out: half inhibitory concentration (IC50) on PI3K-alpha
Protocol: • 4× Reaction Buffer was diluted to 1× with ddH2O, and 1M DTT was added to make the final concentration of 5 mM. Prepare fresh before each use. For example, to prepare 10 mL 1× Reaction Buffer, adding 2.5 mL 4× Reaction Buffer, 50 μL 1 M DTT, and 7.45 mL ddH2O. Throughout the experiment, freshly prepared 1× Reaction Buffer was used to prepare ATP working solution, substrate and enzyme mixed working solution, etc.
• The compound to be tested was dissolved in DMSO to 1 mM as a storage solution, and then diluted with DMSO in a 4-fold ratio for a total of 10 concentration points. 1 μL of each was added to 24 μL 1× Reaction Buffer. 5 μL of each diluted solution was added into a 384-well plate and contained 1% DMSO.
• 1× reaction buffer was used to prepare 2×PIP2 working solution to make the final concentration of 20 μM and PIP2 reaction final concentration of 10 μM, for example, to prepare 1 ml 1× reaction buffer/PIP2 working solution, add 20 μL of PIP2 to 980 μL 1× reaction buffer. This working solution should be prepared with 0.1-0.2 ml more to meet the control usage and dead volume.
• The kinase was diluted with 2×PIP2 working solution, and the concentration of the kinase working solution was 10 ng/well.
• That is, 2×PIP2 working solution.
• 10 mM ATP was diluted to 40 μM with 1× reaction buffer. In a 20 μL kinase reaction system, the concentration of ATP was 10 μM. For example, to prepare 2 ml ATP working solution, take 8 μL 10 mM ATP and add it to 1992 μL 1× reaction buffer.
• Stop A and Stop B were mixed in a ratio of 3:1 and can be used after at least 2 hours at room temperature.
• DM C, DM A and DM B were mixed in a ratio of 18:1:1, and can be used after at least 2 hours at room temperature.
• Emission Ratio (ER)=[…] Emission signal/620 nm Emission signal • The average emission intensity ratio (Emission Ratio) of the 100% inhibition control is recorded as: ER100% • The average Emission Ratio of the 0% inhibition control is recorded as: ER0%
• The inhibition rate is calculated with the following formula: Inhibition rate=(ERsample−ER0%)/(ER100%−ER0%)×100% [(ERpositive−ERsample)/(ERpositive−ERnegative)*100%]

Sequence of PI3K-alpha enzyme (P42336 whole entry): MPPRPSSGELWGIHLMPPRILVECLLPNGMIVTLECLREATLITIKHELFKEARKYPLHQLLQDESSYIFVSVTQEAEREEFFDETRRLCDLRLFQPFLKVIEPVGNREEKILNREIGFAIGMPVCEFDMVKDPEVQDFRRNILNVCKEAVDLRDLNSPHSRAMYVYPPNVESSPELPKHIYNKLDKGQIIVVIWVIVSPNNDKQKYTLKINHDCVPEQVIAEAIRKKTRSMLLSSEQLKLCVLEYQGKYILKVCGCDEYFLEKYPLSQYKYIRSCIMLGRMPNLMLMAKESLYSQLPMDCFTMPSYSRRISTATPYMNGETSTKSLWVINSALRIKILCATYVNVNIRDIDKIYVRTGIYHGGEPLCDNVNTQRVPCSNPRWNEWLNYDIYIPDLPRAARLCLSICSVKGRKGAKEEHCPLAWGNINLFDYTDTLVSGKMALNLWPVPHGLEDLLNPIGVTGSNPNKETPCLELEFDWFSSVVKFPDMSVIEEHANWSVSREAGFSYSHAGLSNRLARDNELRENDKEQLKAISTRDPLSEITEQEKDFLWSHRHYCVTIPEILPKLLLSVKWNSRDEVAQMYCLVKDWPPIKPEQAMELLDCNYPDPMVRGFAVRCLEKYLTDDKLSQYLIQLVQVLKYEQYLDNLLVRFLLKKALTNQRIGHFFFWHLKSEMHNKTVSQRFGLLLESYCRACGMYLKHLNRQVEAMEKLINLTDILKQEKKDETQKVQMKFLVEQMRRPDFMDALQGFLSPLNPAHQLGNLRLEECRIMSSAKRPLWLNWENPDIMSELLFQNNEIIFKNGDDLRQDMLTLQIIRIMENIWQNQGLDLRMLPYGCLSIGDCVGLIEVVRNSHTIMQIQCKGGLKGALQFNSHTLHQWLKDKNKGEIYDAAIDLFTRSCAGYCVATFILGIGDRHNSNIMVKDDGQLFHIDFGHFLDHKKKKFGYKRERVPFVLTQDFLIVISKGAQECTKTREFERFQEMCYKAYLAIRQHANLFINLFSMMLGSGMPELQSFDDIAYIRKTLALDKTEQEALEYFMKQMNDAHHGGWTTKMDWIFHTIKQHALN
Sequence of PI3K-alpha enzyme (P27986 whole entry partner): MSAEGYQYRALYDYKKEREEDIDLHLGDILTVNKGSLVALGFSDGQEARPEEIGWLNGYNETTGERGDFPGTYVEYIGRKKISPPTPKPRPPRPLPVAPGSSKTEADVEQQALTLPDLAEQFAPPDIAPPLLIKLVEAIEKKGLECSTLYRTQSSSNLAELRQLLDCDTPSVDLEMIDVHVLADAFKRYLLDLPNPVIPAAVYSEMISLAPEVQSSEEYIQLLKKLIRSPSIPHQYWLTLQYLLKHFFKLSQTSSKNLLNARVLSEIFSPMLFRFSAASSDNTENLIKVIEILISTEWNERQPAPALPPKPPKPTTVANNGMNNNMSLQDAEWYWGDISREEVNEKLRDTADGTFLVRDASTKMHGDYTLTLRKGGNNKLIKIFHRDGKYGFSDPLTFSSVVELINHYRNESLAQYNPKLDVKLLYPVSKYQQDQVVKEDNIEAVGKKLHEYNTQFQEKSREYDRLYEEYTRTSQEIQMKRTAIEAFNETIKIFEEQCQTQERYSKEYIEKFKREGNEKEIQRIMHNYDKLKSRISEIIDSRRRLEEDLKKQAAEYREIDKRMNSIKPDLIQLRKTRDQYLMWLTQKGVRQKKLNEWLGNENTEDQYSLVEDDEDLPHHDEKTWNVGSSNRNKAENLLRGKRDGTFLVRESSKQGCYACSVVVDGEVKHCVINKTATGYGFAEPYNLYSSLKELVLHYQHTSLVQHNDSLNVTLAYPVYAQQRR

IC50	Compound
89.6 nM	CC(C)(O)c1ccc(NC(=O)Nc2ccc(-c3nc(N4CCOCC4)c4[nH]nc(N)c4n3)cc2)cc1 [Compound I-2, 1-(4-(3-amino-7-morpholino-1H-pyrazolo[4,3-d]pyrimidin-5-yl)phenyl)-3-(4(2-hydroxypropan-2-yl)phenyl)urea]
108 nM	CC1(C)C(=O)Nc2cc(NC(=O)Nc3ccc(-c4nc(N5CCOCC5)c5[nH]nc(N)c5n4)cc3)ccc21 [Compound I-4, 1-(4-(3-amino-7-morpholino-1H-pyrazolo[4,3-d]pyrimidin-5-yl)phenyl)-3-(3,3-dimethyl-2-oxoindolin-6-yl)urea]

The next lines start with the compound.

Compound	IC50
Nc1n[nH]c2c(N3CCOCC3)nc(-c3ccc(NC(=O)Nc4ccc(CO)c(C(F)(F)F)c4)cc3)nc12 [Compound I-5, 1-(4-(3-amino-7-morpholino-1H-pyrazolo[4,3-d]pyrimidin-5-yl)phenyl)-3-(4-(hydroxymethyl)-3-(trifluoromethyl)phenyl)urea]	228 nM
CS(=O)(=O)NC(=O)Cc1ccc(NC(=O)Nc2ccc(-c3nc(N4CCOCC4)c4[nH]nc(N)c4n3)cc2)cc1 [Compound I-3, 2-(4-(3-(4-(3-amino-7-morpholino-1H-pyrazolo[4,3-d]pyrimidin-5-yl)phenyl)ureido)phenyl)-N-(methylsulfonyl)acetamide]	89.1 nM
Nc1n[nH]c2c(N3CCOCC3)nc(-c3ccc(NC(=O)Nc4ccc(COCCN5CCOCC5)cc4)cc3)nc12 [Compound I-6, 1-(4-(3-amino-7-morpholino-1H-pyrazolo[4,3-d]pyrimidin-5-yl)phenyl)-3-(4-((2-morpholinoethoxy)methyl)phenyl)urea]	40.9 nM
Nc1n[nH]c2c(N3CCOCC3)nc(-c3ccc(NC(=O)Nc4ccc(CO)cc4)cc3)nc12 [Compound I-1, 1-(4-(3-amino-7-morpholino-1H-pyrazolo[4,3-d]pyrimidin-5-yl)phenyl)-3-(4-(hydroxymethyl)phenyl)urea]	10.7 nM
